How the values were obtained:
[1] = log P by HPLC on a reversed-phase column (C 18), EEC Directive 79/831 Annex V.A8; assay type: physicochemical; details: HPLC on reversed-phase column (C 18), 40° C., 0.1% aqueous formic acid and acetonitrile, linear gradient 10% to 90% acetonitrile
Procedure: In table 1, the log P values were determined in accordance with EEC Directive 79/831 Annex V.A8 by HPLC (High Performance Liquid Chromatography) on a reversed-phase column (C 18), using the method described below: Temperature: 40° C.; Mobile phases: 0.1% aqueous formic acid and acetonitrile; linear gradient from 10% acetonitrile to 90% acetonitrile. Calibration was carried out using unbranched alkan-2-ones (comprising 3 to 16 carbon atoms) with known log P values (determination of the log P values by the retention times using linear interpolation between two successive alkanones). lambda-max-values were determined using UV-spectra from 200 nm to 400 nm and the peak values of the chromatographic signals.

Puccinia recondita = test: In vivo preventive test on Puccinia recondita (brown rust on wheat); details: wheat plants, 12 days after contamination
Procedure: In Vivo Preventive Test on Puccinia recondita (Brown Rust on Wheat) […] Wheat plants (“Scipion” variety), sown in starter cups on a 50/50 peat soil pozzolana substrate and grown at 22° C., are treated at the 1 leaf stage (10 cm height) by spraying with the active ingredient prepared as described above. Plants, used as controls, are treated with the mixture of acetone/tween/DMSO/water not containing the active material. After 24 hours, the plants are contaminated by spraying the leaves with an aqueous suspension of Puccinia recondita spores (100 000 spores per mL). The spores are collected from an infected plant and are suspended in water containing 2.5 mL/L of Tween 80 at 10%. […] Grading (% of efficacy) is carried out 12 days after the contamination, in comparison with the control plants.

Septoria tritici = test: In vivo preventive test on Septoria tritici (wheat); details: wheat plants, 24 days after contamination
Procedure: In Vivo Preventive Test on Septoria tritici (Wheat) […] Wheat plants (“Scipion” variety), sown in starter cups on a 50/50 peat soil pozzolana substrate and grown at 22° C., are treated at the 1 leaf stage (10 cm height) by spraying with the active ingredient prepared as described above. Plants, used as controls, are treated with the mixture of acetone/tween/DMSO/water not containing the active material. After 24 hours, the plants are contaminated by spraying the leaves with an aqueous suspension of cryopreserved Septoria tritici spores (500 000 spores per mL). The contaminated wheat plants are incubated for 72 hours at 18° C. and at 100% relative humidity, and then for 21 days at 90% relative humidity. Grading (% of efficacy) is carried out 24 days after the contamination, in comparison with the control plants.

Sphaerotheca fuliginea = test: In vivo preventive test on Sphaerotheca fuliginea (powdery mildew on cucurbits); details: gherkin plants, 12 days after contamination
Procedure: In Vivo Preventive Test on Sphaerotheca fuliginea (Powdery Mildew on Cucurbits) […] Gherkin plants (“Vert petit de Paris” variety), sown in starter cups on a 50/50 peat soil-pozzolana substrate and grown at 24° C., are treated at the Z11 cotyledon stage by spraying with the active ingredient prepared as described above. Plants, used as controls, are treated with the mixture of acetone/tween/DMSO/water not containing the active material. After 24 hours, the plants are contaminated by spraying the cotyledons with an aqueous suspension of Sphaerotheca fuliginea spores (100 000 spores per mL). The spores are collected from infected plants. […] Grading (% of efficacy) is carried out 12 days after the contamination, in comparison with the control plants.

Uromyces appendiculatus = test: In vivo preventive test on Uromyces appendiculatus (bean rust); details: bean plants, 11 days after contamination
Procedure: In Vivo Preventive Test on Uromyces appendiculatus (Bean Rust) […] Bean plants (“Saxa” variety), sown in starter cups on a 50/50 peat soil pozzolana substrate and grown at 24° C., are treated at the 2 leaf stage (9 cm height) by spraying with the active ingredient prepared as described above. Plants, used as controls, are treated with the mixture of acetone/tween/DMSO/water not containing the active material. After 24 hours, the plants are contaminated by spraying the leaves with an aqueous suspension of Uromyces appendiculatus spores (150 000 spores per mL). The spores are collected from infected plants and are suspended in water containing 2.5 mL/L of Tween 80 at 10%. […] Grading (% of efficacy) is carried out 11 days after the contamination, in comparison with the control plants.

Botrytis cinerea = test: In vivo preventive test on Botrytis cinerea (grey mould); details: gherkin plants, 4 to 5 days after contamination
Procedure: In Vivo Preventive Test on Botrytis cinerea (Grey Mould) […] Gherkin plants (“Vert petit de Paris” variety), sown in starter cups on a 50/50 peat soil pozzolana substrate and grown at 24° C., are treated at the Z11 cotyledon stage by spraying with the active ingredient prepared as described above. Plants, used as controls, are treated with the mixture of acetone/tween/DMSO/water not containing the active material. After 24 hours, the plants are contaminated by spraying the cotyledons with an aqueous suspension of cryopreserved Botrytis cinerea spores (50 000 spores per mL). The spores are suspended in a nutrient solution composed of 10 g/L of PDB, 50 g/L of D-Fructose, 2 g/L of NH4NO3 and 1 g/L of KH2PO4. The contaminated gherkin plants are incubated at 17° C. and at 90% relative humidity. Grading (% of efficacy) is carried out 4 to 5 days after the contamination, in comparison with the control plants.

[2] = Podosphaera fuliginea, 288 h, 500 ppm of active ingredient, read-out: Efficacy

logP [1] | SMILES | Efficacy (Puccinia recondita; 500 ppm of active ingredient) [%] | Efficacy (Septoria tritici; 500 ppm of active ingredient) [%] | Efficacy (Uromyces appendiculatus; 500 ppm of active ingredient) [%] | also measured
3.64 | Cn1nc(C(F)F)c(C(=O)N(Cc2ccccc2-c2cccs2)C2CC2)c1F [I.69] | 94 | 97 | 100 | Efficacy (Sphaerotheca fuliginea; 500 ppm of active ingredient): 100%
3.71 | Cn1nc(C(F)F)c(C(=O)N(Cc2ccccc2-c2ccsc2)C2CC2)c1Cl [I.76] | 93 | 75 | 96 | –
4.64 | Cc1ccc(-c2csc3ccccc23)c(CN(C(=O)c2c(C(F)F)nn(C)c2F)C2CC2)c1 [I.160] | – | – | – | Efficacy (Septoria tritici; 100 ppm of active ingredient): 71%; Efficacy (Sphaerotheca fuliginea; 100 ppm of active ingredient): 98%; Efficacy (Uromyces appendiculatus; 100 ppm of active ingredient): 77%
2.80 | Cn1cc(-c2ccc(Cl)cc2CN(C(=O)c2c(C(F)F)nn(C)c2F)C2CC2)cn1 [I.55] | 95 | 95 | 99 | Efficacy (Sphaerotheca fuliginea; 500 ppm of active ingredient): 100%
3.48 | CC1CC1N(Cc1ccccc1-c1ccsc1)C(=O)c1cn(C)nc1C(F)F (stereo not drawn) [I.87] | 75 | – | 84 | –
3.92 | CC1CC1N(Cc1ccccc1-c1ccsc1)C(=O)c1c(C(F)F)nn(C)c1Cl (stereo not drawn) [I.88] | 94 | 79 | – | –
3.71 | Cn1ccc(-c2ccc(Cl)cc2CN(C(=O)c2c(C(F)F)nn(C)c2F)C2CC2)c1 [I.48] | 75 | 86 | 96 | –
1.51 | Cn1nc(C(F)F)c(C(=O)N(Cc2ccccc2C2COC2)C2CC2)c1F [I.1] | 75 | – | 83 | Efficacy (Sphaerotheca fuliginea; 500 ppm of active ingredient): 93%
– | Cn1cc(C(=O)N(Cc2ccc(-c3cccnc3)cc2Cl)C2CC2)c(C(F)F)n1 [CMP1, N-[2-chloro-4-(pyridin-3-yl)benzyl]-N-cyclopropyl-3-(difluoromethyl)-1-methyl-1H-pyrazole-4-carboxamide, reference compound] | – | – | – | pest or weed control at 100 ppm (Sphaerotheca fuliginea; Podosphaera fuliginea, 288 h, 100 ppm of active ingredient, read-out: Efficacy): 0%
2.66 | Cc1nn(C)c(C)c1-c1ccc(F)cc1CN(C(=O)c1c(C(F)F)nn(C)c1F)C1CC1 [I.112] | 83 | 100 | – | Efficacy (Sphaerotheca fuliginea; 500 ppm of active ingredient): 100%
2.37 | Cc1ccc(-c2cnn(C)c2)c(CN(C(=O)c2cn(C)nc2C(F)F)C2CC2)c1 [I.59] | – | – | – | Efficacy (Botrytis cinerea; 100 ppm of active ingredient): 81%
3.17 | Cn1cc(C(=O)N(Cc2ccccc2-c2ccsc2)C2CC2)c(C(F)F)n1 [I.70] | 78 | 86 | 96 | Efficacy (Sphaerotheca fuliginea; 500 ppm of active ingredient): 85%
2.96 | Cn1cc(C(=O)N(Cc2ccccc2-c2ccco2)C2CC2)c(C(F)F)n1 [I.31] | – | – | – | Efficacy (Botrytis cinerea; 100 ppm of active ingredient): 81%
2.50 | Cn1cc(-c2ccc(F)cc2CN(C(=O)c2c(C(F)F)nn(C)c2F)C2CC2)cn1 [I.56] | 78 | 100 | 85 | Efficacy (Sphaerotheca fuliginea; 500 ppm of active ingredient): 98%
4.92 | Cn1nc(C(F)F)c(C(=S)N(Cc2cc(Cl)ccc2-c2cccs2)C2CC2)c1Cl [I.79] | – | 75 | 100 | –
3.55 | Cc1ccc(-c2ccoc2)c(CN(C(=O)c2c(C(F)F)nn(C)c2F)C2CC2)c1 [I.39] | – | – | – | Efficacy (Puccinia recondita; 100 ppm of active ingredient): 88%; Efficacy (Septoria tritici; 100 ppm of active ingredient): 80%

logP [1] | SMILES | Efficacy (Puccinia recondita; 500 ppm of active ingredient) [%] | Efficacy (Septoria tritici; 500 ppm of active ingredient) [%] | Efficacy (Uromyces appendiculatus; 500 ppm of active ingredient) [%] | also measured
– | Cn1cc(C(=O)N(Cc2ccccc2-c2cccc(Cl)n2)C2CC2)c(C(F)F)n1 [CMP4, N-[2-(6-chloropyridin-2-yl)benzyl]-N-cyclopropyl-3-(difluoromethyl)-1-methyl-1H-pyrazole-4-carboxamide, reference compound] | – | – | – | pest or weed control at 500 ppm (Sphaerotheca fuliginea; [2]): < 40%
4.29 | Cn1nc(C(F)F)c(C(=O)N(Cc2cc(Cl)ccc2-c2cccs2)C2CC2)c1Cl [I.77] | – | – | 84 | –
4.74 | Cn1nc(C(F)F)c(C(=O)N(Cc2cc(Cl)ccc2-c2csc3ccccc23)C2CC2)c1F [I.155] | 75 | 86 | 99 | –
3.69 | Cn1cc(C(=O)N(Cc2cc(Cl)ccc2-c2cccs2)C2CC2)c(C(F)F)n1 [I.71] | – | 90 | 81 | Efficacy (Sphaerotheca fuliginea; 500 ppm of active ingredient): 98%
2.98 | CC1=NOC(C)(c2ccc(C)cc2CN(C(=O)c2c(C(F)F)nn(C)c2F)C2CC2)C1 (stereo not drawn) [I.111] | – | – | – | Efficacy (Puccinia recondita; 100 ppm of active ingredient): 88%; Efficacy (Sphaerotheca fuliginea; 100 ppm of active ingredient): 100%; Efficacy (Uromyces appendiculatus; 100 ppm of active ingredient): 100%
3.50 | Cn1nc(C(F)F)c(C(=O)N(Cc2ccccc2Oc2nc(Cl)cc(Cl)n2)C2CC2)c1F [I.168] | 81 | 80 | 99 | Efficacy (Sphaerotheca fuliginea; 500 ppm of active ingredient): 83%
3.00 | Cn1nc(C(F)F)c(C(=O)N(Cc2cc(F)ccc2C2(C)CO2)C2CC2)c1Cl (stereo not drawn) [I.8] | – | – | – | Efficacy (Puccinia recondita; 100 ppm of active ingredient): 94%; Efficacy (Uromyces appendiculatus; 100 ppm of active ingredient): 95%
4.01 | Cn1nc(C(F)F)c(C(=O)N(Cc2cc(-c3ccco3)ccc2Cl)C2CC2)c1Cl [I.35] | – | – | – | Efficacy (Botrytis cinerea; 100 ppm of active ingredient): 94%
3.68 | Cn1cc(C(=O)N(Cc2cc(-c3cccs3)ccc2Cl)C2CC2)c(C(F)F)n1 [I.84] | – | – | – | Efficacy (Botrytis cinerea; 100 ppm of active ingredient): 100%; Efficacy (Septoria tritici; 100 ppm of active ingredient): 71%
4.85 | Cn1cc(C(=O)N(Cc2cc(Cl)ccc2-c2ccc(Cl)s2)C2CC2)c(C(F)F)c1 [I.146] | – | – | – | Efficacy (Botrytis cinerea; 500 ppm of active ingredient): 100%
4.25 | Cc1ccc(-c2cscc2C)c(CN(C(=O)c2c(C(F)F)nn(C)c2F)C2CC2)c1 [I.108] | – | – | – | Efficacy (Botrytis cinerea; 100 ppm of active ingredient): 100%; Efficacy (Septoria tritici; 100 ppm of active ingredient): 86%; Efficacy (Sphaerotheca fuliginea; 100 ppm of active ingredient): 75%
– | Cn1nc(C(F)F)c(C(=O)N(Cc2ccccc2-c2cccc(Cl)n2)C2CC2)c1Cl [CMP5, 5-chloro-N-[2-(6-chloropyridin-2-yl)benzyl]-N-cyclopropyl-3-(difluoromethyl)-1-methyl-1H-pyrazole-4-carboxamide, reference compound] | – | – | – | pest or weed control at 500 ppm (Sphaerotheca fuliginea; [2]): < 40%
2.53 | Cn1cc(C(=O)N(Cc2cc(F)ccc2C2(C)CO2)C2CC2)c(C(F)F)n1 (stereo not drawn) [I.6] | – | – | – | Efficacy (Puccinia recondita; 100 ppm of active ingredient): 81%; Efficacy (Septoria tritici; 100 ppm of active ingredient): 92%; Efficacy (Uromyces appendiculatus; 100 ppm of active ingredient): 73%
3.71 | Cc1ccc(-c2ccoc2)c(CN(C(=O)c2c(C(F)F)nn(C)c2Cl)C2CC2)c1 [I.37] | – | – | – | Efficacy (Puccinia recondita; 100 ppm of active ingredient): 81%; Efficacy (Uromyces appendiculatus; 100 ppm of active ingredient): 83%
2.98 | Cc1nn(C)c(C)c1-c1ccc(Cl)cc1CN(C(=O)c1c(C(F)F)nn(C)c1F)C1CC1 [I.113] | – | 70 | – | Efficacy (Sphaerotheca fuliginea; 500 ppm of active ingredient): 98%

From patent US10125126B2, “N-cycloalkyl-N-[(heterocyclylphenyl)methylene]-(thio)carboxamide derivatives” (BAYER CROPSCIENCE AG, priority 2012, dated 2018)
